Measured values reported in US20140228287A1, “1-[(3-CYANO-PYRIDIN-2-YL)METHYL]-3-METHYL-7-(2-BUTYN-1-YL)-8-[3-(R)-AMINO-PIPERIDIN-1-YL]-AXANTHINE FOR THE TREATMENT OF A METABOLIC DISORDER OF A PREDOMINANTLY CARNIVOROUS NON-HUMAN ANIMAL” (BOEHRINGER INGELHEIM VETMEDICA GMBH, priority 2010, published 2014).
“Also recorded” adds a separate entry of the source. Structures can show the parent of a compound that is named as a salt. Where two headings read alike, the source gives them in different places.

Columns and labels:
[1] = molecular target: T1, plasma DPP-4 (Felis catus, UniProt Q9N2I7); assay: Inhibition of DPP-4 in cat plasma (in vitro); format: biochemical
T1 construct: from tissue; host or cells: cat plasma (3 cats), diluted 70-fold
Procedure: Plasma obtained from 3 different cats and one Wistar rat as control were each incubated with a range of concentrations of 1-[(3-cyano-pyridin-2-yl)methyl]-3-methyl-7-(2-butyn-1-yl)-8-[3-(R)-amino-piperidin-1-yl]-xanthine monohydrochloride. Plasma DPP-4 activity was measured in the following way (which is also described in Eckhard et al. (2007), J. Med. Chem., Vol. 50, 6450-6453, Supporting Information).
Rat and cat plasma was used for ex vivo measurement of DDP-4 activity. Blood was collected in EDTA tubes and subjected to centrifugation. The resultant supernatant was aliquoted and frozen. Plasma DPP-4 activity was assayed after dilution (140-fold for rat plasma; 70-fold for cat plasma) with assay buffer (100 mM Tris-HCl, 100 mM NaCl, pH 7.8; compound stock solutions in dimethylsulfoxide (DMSO), final DMSO concentration in the assay 1%) prior to use.
The assay itself was initiated by mixing 50 μl of diluted plasma with 50 μl of diluted substrate (Ala-Pro-AFC) and performed in black flat-bottom 96-well plates. The plates were then incubated at room temperature for 1 h and fluorescence was measured at excitation/emission wavelengths of 405/535 nm. Data analysis was performed by calculating the fluorescence in the presence of the test compound compared to the fluorescence of the vehicle control after subtracting the background fluorescence.
From a plot of concentration against activity (equivalent to fluorescence units) kinetic data could be collected, e.g. the half-maximal inhibitory concentration (IC50) of the tested compound in the different animals, which data are given in the following Table 2.

[2] = 60-Day tolerability study of tablets in cats: adverse effects; format: in vivo; details: 20 and 40 mg daily oral tablets for 60 days, monohydrochloride
Procedure: This study was conducted in order to examine the long-term tolerability of a pharmaceutical composition comprising 1-[(3-cyano-pyridin-2-yl)methyl]-3-methyl-7-(2-butyn-1-yl)-8-[3-(R)-amino-piperidin-1-yl]-xanthine monohydrochloride in cats after repeated oral administration for 60-days.
For this purpose, the compound according to the invention has been admixed with standard ingredients to a scored, oblong, brown tablet, size 10×5.5 mm, comprising 1-[(3-cyano-pyridin-2-yl)methyl]-3-methyl-7-(2-butyn-1-yl)-8-[3-(R)-amino-piperidin-1-yl]-xanthine monohydrochloride at 21.68 mg of the chloride per tablet (which equals 20 mg of the free base) and 10% meat flavour.
20 male healthy non-obese cats (Domestic short hair feline) supplied by Liberty Research, Inc., Waverly, N.Y., USA, of an age of 13 to 20 months were used. After an adaptation period of 4 weeks, they were separated into three groups: group 1 (6 members, no. 1 to 6) for placebo treatment, group 2 (7 members, no. 7 to 13) for treatment with 20 mg/cat, group 3 (7 members, no. 14 to 20) for treatment with 40 mg/cat. They were treated once daily in the morning, orally with the respective tablet(s) for 60 days. All animals had fasted over night and were fed 4 hours after the administration. Drinking water was offered ad libitum. […]

[3] = test system: trypsin; assay: In vitro selectivity, human proteases: trypsin; format: biochemical; details: up to 100 μM
Excerpt: (§1) In order to determine the in vitro selectivity of 1-[(3-cyano-pyridin-2-yl)methyl]-3-methyl-7-(2-butyn-1-yl)-8-[3-(R)-amino-piperidin-1-yl]-xanthine, the ability of this compound to inhibit a number of human proteases was investigated as described in Thomas et al. (2008), J. Pharmacol. Exp. Ther., vol. 325, p. 175-182, chapter In vitro DPP-4 Inhibition Assay, p. 176.

[4] = molecular target: DPP-II (Homo sapiens, UniProt Q9UHL4); assay: In vitro selectivity, human proteases: DPP-II; format: biochemical; details: up to 100 μM
Excerpt: as §1

[5] = Exploratory single dose PK/PD (1.0/5.0/10.0 mg/kg) in cats: pharmacokinetics; format: in vivo; details: cat; for AUC(0-inf) / Cmax / MRT / Tmax / half-life: male, domestic short hair, plasma, free base by LC-MS/MS; for half-life: read-out: T1/2, mean (converted)
Procedure: The aim of this study was to investigate the PK/PD behaviour of 1-[(3-cyano-pyridin-2-yl)methyl]-3-methyl-7-(2-butyn-1-yl)-8-[3-(R)-amino-piperidin-1-yl]-xanthine in the cat following a single oral administration of 0, 1, 5 and 10 mg/kg body weight (dosages were based on the free base: 1 mg 1-[(3-cyano-pyridin-2-yl)methyl]-3-methyl-7-(2-butyn-1-yl)-8-[3-(R)-amino-piperidin-1-yl]-xanthine monohydrochloride corresponds to 0.923 mg 1-[(3-cyano-pyridin-2-yl)methyl]-3-methyl-7-(2-butyn-1-yl)-8-[3-(R)-amino-piperidin-1-yl]-xanthine free base).
Twelve clinically healthy male adult domestic short hair cats with a body weight range of 3.5-4.7 kg were used in this study. All animals were treated orally once via a stomach tube. Blood samples for pharmacokinetic and pharmacodynamic (DPP IV activity) investigations were drawn at 0 h (i.e. prior to treatment), 30 min as well as 1, 2, 4, 8, 8.5, 9, 12, 24, 36, 48, 72, 84 and 96 h after treatment. Blood samples for pharmacodynamic (glucagon-like peptide 1 concentrations) investigations were drawn at −16 (i.e. prior to feeding), −15.5, −15 h as well as at 8 h (i.e. prior to feeding), 8.5 and 9 h after treatment.
PK data for 1-[(3-cyano-pyridin-2-yl)methyl]-3-methyl-7-(2-butyn-1-yl)-8-[3-(R)-amino-piperidin-1-yl]-xanthine free base were determined with a validated LC-MS/MS method and are summarized in Table 6.

T1 sequence (Q9N2I7 38-765 limits assumed): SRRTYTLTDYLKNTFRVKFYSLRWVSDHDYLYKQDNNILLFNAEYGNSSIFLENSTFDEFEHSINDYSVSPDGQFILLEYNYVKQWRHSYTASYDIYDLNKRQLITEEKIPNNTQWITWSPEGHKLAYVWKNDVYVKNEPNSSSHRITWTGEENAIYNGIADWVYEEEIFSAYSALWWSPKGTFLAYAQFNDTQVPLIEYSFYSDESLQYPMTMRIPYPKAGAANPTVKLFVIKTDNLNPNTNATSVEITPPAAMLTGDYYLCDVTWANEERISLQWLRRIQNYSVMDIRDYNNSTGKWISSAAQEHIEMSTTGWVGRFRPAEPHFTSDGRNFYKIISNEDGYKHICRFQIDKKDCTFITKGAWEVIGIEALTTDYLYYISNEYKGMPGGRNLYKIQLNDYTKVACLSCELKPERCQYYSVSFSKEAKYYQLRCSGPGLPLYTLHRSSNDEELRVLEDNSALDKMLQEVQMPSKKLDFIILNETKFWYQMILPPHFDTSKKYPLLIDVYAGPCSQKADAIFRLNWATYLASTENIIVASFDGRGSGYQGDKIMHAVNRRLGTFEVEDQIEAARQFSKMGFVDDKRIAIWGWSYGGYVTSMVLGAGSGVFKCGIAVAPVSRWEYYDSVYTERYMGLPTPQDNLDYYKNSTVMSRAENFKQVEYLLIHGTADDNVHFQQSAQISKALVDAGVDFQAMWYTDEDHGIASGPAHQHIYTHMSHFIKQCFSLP

CC#CCn1c(N2CCC[C@@H](N)C2)nc2c1c(=O)n(Cc1ncccc1C#N)c(=O)n2C [1-[(3-cyano-pyridin-2-yl)methyl]-3-methyl-7-(2-butyn-1-yl)-8-[3-(R)-amino-piperidin-1-yl]-xanthine monohydrochloride]
IC50 ([1]; cat 1 plasma): 1.94 nM
hillslope ([1]; cat 1 plasma): −0.7518
IC50 ([1]; cat 2 plasma): 1.45 nM
hillslope ([1]; cat 2 plasma): −0.7102
IC50 ([1]; cat 3 plasma): 1.84 nM
hillslope ([1]; cat 3 plasma): −0.7615
adverse effects / tolerability [2]: Adverse effects were not detected; also recorded: well tolerated
inhibitory effect on trypsin [3]: did not exert any inhibitory effect
inhibitory effect on DPP-II [4]: did not exert any inhibitory effect
half live ([5]; single oral 1.0, 5.0, 10.0 mg/kg): over 25 hours
AUC(0-inf) ([5]; 1.0 mg/kg single oral): 1.14 µM·h
Cmax ([5]; 1.0 mg/kg single oral): 175 nM
MRT ([5]; 1.0 mg/kg single oral): 12.3 h
Tmax ([5]; 1.0 mg/kg single oral): 1.33 h
half-life ([5]; 1.0 mg/kg single oral): 1520 min
AUC(0-inf) ([5]; 5.0 mg/kg single oral): 5.48 µM·h
Cmax ([5]; 5.0 mg/kg single oral): 931 nM
MRT ([5]; 5.0 mg/kg single oral): 6.76 h
Tmax ([5]; 5.0 mg/kg single oral): 1.83 h
half-life ([5]; 5.0 mg/kg single oral): 1730 min
AUC(0-inf) ([5]; 10 mg/kg single oral): 26.3 µM·h
Cmax ([5]; 10 mg/kg single oral): 5470 nM
MRT ([5]; 10 mg/kg single oral): 5.73 h
Tmax ([5]; 10 mg/kg single oral): 1.33 h
half-life ([5]; 10 mg/kg single oral): 2250 min
